Measured values reported in PMC8284454, “In Vitro Profiling of Antitubercular Compounds by Rapid, Efficient, and Nondestructive Assays Using Autoluminescent Mycobacterium tuberculosis” (Antimicrobial Agents and Chemotherapy, 2021).
Values after ≈ are worked out from the molar mass of the structure shown. Like-named read-outs stand apart in the source and are kept apart here. Marks after values point to notes of the source that are not given here.

Assays:
[1] = test system: M. tuberculosis H37Rv_LuxABCDE; assay: luminescence-based MBC assay (LMBCA) / time-kill; type: cell-based, Mycobacterium tuberculosis; settings: for change of MBC values over time: over 21 days, luminescence time-kill; for time and/or concentration dependence of bactericidal activity: time-kill curves up to day 21
[2] = test system: M. tuberculosis H37Rv_LuxABCDE; assay: microbe, parasite or virus in culture; type: cell-based, Mycobacterium tuberculosis; settings: day 7, SD from three independent experiments; for MBC: Mycobacterium tuberculosis, read-out: MBC (±SD) via CFU
[3] = test system: M. tuberculosis H37Rv_LuxABCDE; assay: luminescence-based MIC assay (LMICA); settings: for MIC (±SD) LMICA: 90% reduction of luminescence, 7 days, 7H12 medium, SD from three independent experiments
[4] = test system: M. tuberculosis H37Rv_LuxABCDE; assay: microplate alamarBlue assay (MABA) MIC; settings: 90% reduction of fluorescence, 7 days, 7H12 medium; SD from three independent experiments
[5] = test system: J774-internalized M. tuberculosis (H37Rv); assay: intracellular activity by luminescence (EC90); type: cell-based, Mycobacterium tuberculosis; settings: for EC90: RLU
[6] = test system: M. tuberculosis H37Rv_LuxABCDE; assay: postantibiotic effect by luminescence (RLU); type: cell-based, Mycobacterium tuberculosis; settings: 1.5 log10 RLU increase, 1:10,000-fold dilution
[7] = test system: M. tuberculosis H37Rv_LuxABCDE; type: cell-based, Mycobacterium tuberculosis; settings: 1:10,000-fold dilution
[8] = test system: infected J774; settings: day 7, 10 μM
[9] = test system: J774 infected with M. tuberculosis strain Erdman; settings: read-out: Literature reported EC90; cited from earlier work
[10] = Mycobacterium tuberculosis, 168 h, day 7, 99% reduction in RLU vs T0, SD from three independent experiments, read-out: MBC (±SD) via luminescence
[11] = Mycobacterium tuberculosis, 336 h, day 14, 99% reduction in RLU vs T0, read-out: MBC (±SD) by luminescence on day 14
[12] = Mycobacterium tuberculosis, 504 h, day 21, 99% reduction in RLU vs T0, read-out: MBC (±SD) by luminescence on day 21
[13] = day 7, 99% reduction in RLU vs T0, SD from three independent experiments

Compound	MBC [1, 10]	MBC [1, 11]	MBC [1, 12]	change of MBC values over time [1]	time and/or concentration dependence of bactericidal activity [1]	MBC [2]	MIC (±SD) LMICA [3]	MIC (±SD) MABA [4]	MBC (±SD) via luminescence [1, 13]	MBC (±SD) via CFU [2]	also measured
CC(=O)NC[C@H]1CN(c2ccc(N3CCOCC3)c(F)c2)C(=O)O1 [Linezolid]	9.6 µM (≈ 3.24 µg/mL)	7 µM (≈ 2.36 µg/mL)	6 µM (≈ 2.02 µg/mL)	decreased	mainly time dependent	> 29 µM	1.7 (0.23) μM	1.7 (0.10) μM	–	–	–
COc1c(N2C[C@@H]3CCCN[C@@H]3C2)c(F)cc2c(=O)c(C(=O)O)cn(C3CC3)c12 [Moxifloxacin]	0.91 µM (≈ 0.365 µg/mL)	0.42 µM (≈ 0.169 µg/mL)	0.46 µM (≈ 0.185 µg/mL)	decreased	both time and concentration dependent	0.753 µM (≈ 0.302 µg/mL)	0.13 (0.02) μM	0.24 (0.04) μM	–	–	–
O=[N+]([O-])c1cn2c(n1)OC[C@@H](OCc1ccc(OC(F)(F)F)cc1)C2 [Pretomanid]	0.63 µM (≈ 0.226 µg/mL)	12.5 µM (≈ 4.49 µg/mL)	13 µM (≈ 4.67 µg/mL)	increase	both time and concentration dependent	0.5 µM (≈ 0.18 µg/mL)	0.46 (0.01) μM	0.49 (0.02) μM	–	–	–
C/C=C/C[C@@H]1NC(=O)[C@H](CC(C)C)N2C(=O)[C@H](C[C@H](C)C2O)N(C)C(=O)[C@H](C)NC(=O)[C@H](Cc2ccc(O)c([N+](=O)[O-])c2)NC(=O)[C@H](CC(C)C)N(C)C(=O)[C@H](Cc2cn(C(C)(C)C3CO3)c3ccccc23)NC1=O (stereo partly drawn) [Rufomycin]	–	–	–	decreased	mainly time dependent	–	0.010 (0.001) μM	0.032 (0.012) μM	>1^c μM	>1^b μM	bactericidal or bacteriostatic activity [1]: bacteriostatic; MBC ([1]; day 7, 99% reduction in RLU vs T0, SD from three independent experiments, read-out: MBC (±SD) via luminescence): > 1 µM; MBC ([1]; day 14, 99% reduction in RLU vs T0, read-out: MBC (±SD) by luminescence on day 14): > 1 µM; EC90 ([5]; EC90, day 3, J774 macrophages, read-out: Intracellular activity, EC90 (±SD) Day 3): > 10000 nM; EC90 ([5]; EC90, day 5, J774 macrophages, read-out: Intracellular activity, EC90 (±SD) Day 5): 3060 nM; EC90 ([5]; EC90, day 7, J774 macrophages, read-out: Intracellular activity, EC90 (±SD) Day 7): 1520 nM; percent inhibition at the highest tested concentration, intracellular activity Day 3 ([5]; day 3, 10 μM): 69%; PAE 1× MIC RLU ([6]; 3 h exposure at 1× MIC): 0 h; PAE 10× MIC RLU ([6]; 3 h exposure at 10× MIC): 40 h; PAE 100× MIC RLU ([6]; 3 h exposure at 100× MIC): 96 h; PAE 1× MIC CFU/ml ([7]; 3 h exposure at 1× MIC): 0 h; PAE 10× MIC CFU/ml ([7]; 3 h exposure at 10× MIC): 48 h; PAE 100× MIC CFU/ml ([7]; 3 h exposure at 100× MIC): 110 h; Toxicity against infected J774, percent inhibition at the highest tested concentration [8]: 10 (8)* percent; EC90 [9]: ~100 nM; MIC lower than ecumicin ([3]; ratio of MICs of Table 1): 7 fold
[H]/N=C(/N)N[C@H]1[C@H](O)[C@@H](O)[C@H](O[C@@H]2O[C@@H](C)[C@](O)(C=O)[C@H]2O[C@@H]2O[C@@H](CO)[C@H](O)[C@@H](O)[C@@H]2NC)[C@@H](N/C(N)=N\[H])[C@@H]1O [Streptomycin]	0.3 µM (≈ 0.174 µg/mL)	0.5 µM (≈ 0.291 µg/mL)	0.9 µM (≈ 0.523 µg/mL)	–	both time and concentration dependent	0.37 µM (≈ 0.215 µg/mL)	0.12 (0.04) μM	0.12 (0.02) μM	–	–	–
Capreomycin	–	–	–	increase	–	–	0.53 (0.07) μM	0.70 (0.03) μM	1.3 (0.4) μM	1.7 (0.9) μM	MBC (±SD) by luminescence on day 14 ([1]; day 14, 99% reduction in RLU vs T0): 6.94 (3.8) µM; MBC (±SD) by luminescence on day 21 ([1]; day 21, 99% reduction in RLU vs T0): 13.65 (2.34) µM
